Experimental data as given in patent publication US20110097274A1, “Carbon-11 and fluorine-18 labeled radioligands for positron emission tomography (PET) imaging for the brain serotonin transporters” (priority 2002, published 2011).
Structures can show the parent of a compound that is named as a salt. Where two headings read alike, the source gives them in different places.

Key:
[1] = In vitro logP measurement, octanol/phosphate buffer pH 7.4; assay type: physicochemical; conditions: octanol/phosphate buffer pH 7.4, radiolabeled compound, mean ± SD, n = 8
Protocol: In vitro logP measurement: Octanol/water partition coefficient of the radiolabeled compounds were measured at Columbia University, using the method of Wilson et al. (2001), with some modifications. Briefly, 300 to 500 μCi of radioligand in EtOH was added to a separatory funnel containing octanol (20 mL) and phosphate buffer (20 mL, pH 7.4). The mixture was shaken mechanically for 3 minutes and the layers were separated. The octanol layer (15 mL) was transferred to a second separatory funnel containing 15 mL of the phosphate buffer (pH 7.4). The mixture was shaken mechanically for 3 minutes and the layers were separated. This second octanol layer was then partitioned into four test tubes (2 mL each) and the phosphate buffer (2 mL each) added. The test tubes were vortexed for 10 minutes, and then centrifuged for 10 minutes at 1000 rpm to separate the layers. The octanol and aqueous phases (1.0 mL each) were transferred into counting tubes and counted with a gamma counter (Wallac 1480 Wizard 3M Automatic Gamma Counter, Perkin-Elmer, Boston, Mass.). The radioactivity counts were decay-corrected and the partition coefficient calculated as P=counts in octanol/counts in buffer. Eight separate measurements were preformed for each tracer.

[2] = molecular target: T1, dopamine transporter (DAT) (Homo sapiens, UniProt Q01959); assay: In vitro binding affinity for DAT, radioligand [^3H]GBR12935 (Table 1); parameters: species or system rat or human (cloned)
T1 construct: host or cells: either rat cortical tissue or cells expressing the cloned human transporter
T1 sequence (Q01959 whole entry, species assumed): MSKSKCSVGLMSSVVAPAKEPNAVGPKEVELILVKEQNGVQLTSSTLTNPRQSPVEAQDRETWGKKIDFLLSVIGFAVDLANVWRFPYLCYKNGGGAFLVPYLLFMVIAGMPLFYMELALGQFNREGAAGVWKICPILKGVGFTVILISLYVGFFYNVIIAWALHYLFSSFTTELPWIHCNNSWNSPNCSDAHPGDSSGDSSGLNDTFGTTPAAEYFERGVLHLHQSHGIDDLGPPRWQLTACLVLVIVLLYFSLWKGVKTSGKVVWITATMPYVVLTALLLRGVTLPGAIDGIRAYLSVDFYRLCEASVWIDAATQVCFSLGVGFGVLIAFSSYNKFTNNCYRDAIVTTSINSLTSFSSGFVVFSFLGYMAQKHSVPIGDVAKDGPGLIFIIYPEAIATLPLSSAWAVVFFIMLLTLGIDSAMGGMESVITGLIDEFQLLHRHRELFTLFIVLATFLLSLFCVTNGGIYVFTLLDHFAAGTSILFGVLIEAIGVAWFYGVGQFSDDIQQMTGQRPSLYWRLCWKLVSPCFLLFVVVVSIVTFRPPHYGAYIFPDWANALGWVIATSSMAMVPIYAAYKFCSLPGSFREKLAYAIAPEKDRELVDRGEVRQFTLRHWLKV
Protocol: (§1) Selected compounds were assayed in vitro for their binding affinity for the dopamine transporter (DAT), serotonin transporter (SERT), and norepinephrine transporter (NET) using membranes prepared from either the rat cortical tissues or cells expressed with cloned-human transporters and radioligands. Radioligands used were [^3H]paroxetine (SERT), [^3H]nisoxetine (NET), and [^3H]GBR12935 (DAT).

[3] = molecular target: T2, SERT (Rattus norvegicus, UniProt P31652); assay: In vitro binding assay on rat frontal cortex homogenates using [^3H]paroxetine; parameters: from tissue; host or cells: frontal cortex of male Sprague-Dawley rats, washed membrane homogenate; conditions: mean ± SD, n = 3
T2 sequence (P31652 whole entry): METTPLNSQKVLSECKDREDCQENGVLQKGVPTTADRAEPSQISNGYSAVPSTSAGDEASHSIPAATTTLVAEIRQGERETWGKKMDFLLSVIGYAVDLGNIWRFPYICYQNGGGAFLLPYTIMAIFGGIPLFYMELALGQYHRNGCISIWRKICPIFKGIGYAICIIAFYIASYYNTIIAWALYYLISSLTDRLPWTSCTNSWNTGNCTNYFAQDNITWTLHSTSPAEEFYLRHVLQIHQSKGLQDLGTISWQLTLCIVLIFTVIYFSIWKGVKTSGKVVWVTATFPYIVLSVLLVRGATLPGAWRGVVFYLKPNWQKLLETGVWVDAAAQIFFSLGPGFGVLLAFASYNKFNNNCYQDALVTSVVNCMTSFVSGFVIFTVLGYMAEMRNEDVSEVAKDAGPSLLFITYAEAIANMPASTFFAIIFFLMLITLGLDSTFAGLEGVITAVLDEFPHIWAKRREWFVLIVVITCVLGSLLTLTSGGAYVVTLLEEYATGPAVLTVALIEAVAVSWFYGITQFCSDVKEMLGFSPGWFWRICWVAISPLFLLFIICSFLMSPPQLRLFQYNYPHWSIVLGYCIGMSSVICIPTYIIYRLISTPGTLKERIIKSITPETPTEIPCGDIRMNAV
Protocol: In vitro binding assays: Measurement of the inhibition constants (Ki) of the labeled compounds in FIG. 1 on rat frontal cortex homogenates were performed at Columbia University using [^3H]paroxetine, as previously described (Laruelle et al., 1988b). Briefly, male Sprague-Dawley rats (250-300 g) were killed by decapitation. Dissection of the brain was carried out on ice and samples of the frontal cortex were stored at −40° C. until binding assay. After thawing, samples were homogenized in 10 volumes of buffer (50 mM Tris-HCl, pH 7.4, 120 mM NaCl and 5 mM KCl). The homogenates were centrifuged at 10,000 rpm for 10 minutes. Pellets were resuspended in 10 volumes of buffer, incubated at 37° C. for 10 minutes, and centrifuged again. This procedure was then repeated a third time.
For the binding assay, membranes were suspended in buffer at a final protein concentration of 5 mg/mL. Unlabelled drugs were dissolved in dimethyl sulfoxide (DMSO) in borosilicate glass tubes to yield a 1 mM stock solution, from which subsequent serial dilutions were performed with the buffer. Aliquots of tissue preparation were incubated with [^3H]paroxetine (0.1 nM) at 22° C. or 37° C. for 60 minutes in the absence or presence of unlabelled drug (10^−5 to 10^−12 M) to yield a final volume of 0.5 mL (borosilicate glass tubes). Nonspecific binding was defined by incubation with 10 μM of citalopram. Each concentration was performed in triplicates. After incubation, the mixture was rapidly filtered through Whatman GF/B glass fiber filters using a 48-channel cell harvester (Brandel, Gaithersburg, Md.). The filters were washed 3 times with 4 mL each of ice cold buffer, placed in vials with 4 mL Ultima Gold solvent (Packard Instrument Co., Downers Grove, Ill.), and counted the following day for radioactivity in a liquid scintillation counter (Tricarb 1500, Packard Instrument Co., Downers Grove, Ill.). This experiment was performed three times at 22° C. and 37° C., on three different days. Ki values were derived using GraphPad Prism software (San Diego, Calif.).

[4] = molecular target: T3, norepinephrine transporter (NET) (Homo sapiens, UniProt P23975); assay: In vitro binding affinity for NET, radioligand [^3H]nisoxetine (Table 1); parameters: species or system rat or human (cloned)
T3 construct: host or cells: either rat cortical tissue or cells expressing the cloned human transporter
T3 sequence (P23975 whole entry, species assumed): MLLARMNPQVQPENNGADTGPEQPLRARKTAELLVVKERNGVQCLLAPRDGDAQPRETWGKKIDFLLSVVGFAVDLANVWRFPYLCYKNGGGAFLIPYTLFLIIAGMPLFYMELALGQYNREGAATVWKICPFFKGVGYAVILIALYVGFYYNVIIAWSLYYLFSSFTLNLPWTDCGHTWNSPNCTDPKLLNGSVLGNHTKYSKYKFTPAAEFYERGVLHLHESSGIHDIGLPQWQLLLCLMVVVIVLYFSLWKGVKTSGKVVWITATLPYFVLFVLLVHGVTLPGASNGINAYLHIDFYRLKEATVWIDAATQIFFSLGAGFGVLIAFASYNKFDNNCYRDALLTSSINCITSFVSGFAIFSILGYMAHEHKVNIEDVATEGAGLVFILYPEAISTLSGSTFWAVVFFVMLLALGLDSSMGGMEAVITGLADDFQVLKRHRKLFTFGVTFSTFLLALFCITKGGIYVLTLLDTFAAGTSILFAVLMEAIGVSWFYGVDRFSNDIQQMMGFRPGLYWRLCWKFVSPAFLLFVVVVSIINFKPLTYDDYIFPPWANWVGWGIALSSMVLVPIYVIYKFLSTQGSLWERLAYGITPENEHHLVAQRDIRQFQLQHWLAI
Protocol: as §1

[5] = molecular target: T4, serotonin transporter (SERT) (Rattus norvegicus, UniProt P31652); assay: In vitro binding affinity for SERT, radioligand [^3H]paroxetine (Table 1); parameters: species or system rat or human (cloned)
T4 construct: membranes prepared from either the rat cortical tissues or cells expressed with cloned-human transporters; from tissue; host or cells: rat cortical tissue membranes (inferred; the alternative is cells expressing cloned human SERT)
T4 sequence (P31652 whole entry): as the sequence (P31652 whole entry) above
Protocol: as §1

[6] = molecular target: T2, SERT; parameters: host or cells: rat brain membranes (for ADAM/IDAM); conditions: literature; [^125I] ligands in rat brain membranes; cited from earlier work
[7] = humans, literature; cited from earlier work
[8] = molecular target: SERT; conditions: literature; cited from earlier work
[9] = literature (Laruelle et al., 1994a); cited from earlier work
[10] = 22° C., read-out: Ki for SERT at 22° C.
[11] = 37° C., read-out: Ki for SERT at 37° C.

CN(C)Cc1ccccc1Sc1ccc(F)cc1N (as salt: tartrate) [AFA, 2-(2-(Dimethylaminomethyl)phenylthio)-5-fluorophenylamine]
melting point: 158 to 159 °C

CN(C)Cc1ccccc1Sc1ccc(CF)cc1N (as salt: tartrate) [AFM, 2-(2-(Dimethylaminomethyl)phenylthio)-5-fluoromethylphenylamine]
melting point: 142 to 143 °C

CNCc1ccccc1Sc1ccc(C)cc1N (as salt: tartrate) [Example 39, 5-Methyl-2-(2-(methylaminomethyl)phenylthio)phenylamine]
melting point: 164 to 166 °C

CNCc1ccccc1Sc1ccc(F)cc1N (as salt: tartrate) [Example 41, 5-Fluoro-2-(2-(methylaminomethyl)phenylthio)phenylamine]
melting point: 106 to 108 °C

CSc1ccc(C2CN3CCCC3c3ccccc32)cc1 (single isomer, unassigned; (+)) [McN 5652, (+)-6β-(4-methylthiophenyl)-1,2,3,5,6α,10β-hexahydropyrrolo[2,1-a]isoquinoline]
logP [1]: 2.51 ± 0.03

CN(C)Cc1ccccc1Sc1ccc(I)cc1N [ADAM, 2-{2-[(dimethylamino)methyl]phenylthio}-5-iodophenylamine]
Ki [2]: > 10000 nM | Ki [3, 10]: 0.32 ± 0.11 nM | Ki [3, 11]: 0.4 ± 0.16 nM | logP [1]: 3.31 ± 0.13 | Ki [4]: 1350 nM | Ki [5]: 0.32 nM | Ki [6]: 0.15 nM

CN(C)Cc1ccccc1Sc1ccc(CF)cc1N [AFM, 2-(2-(Dimethylaminomethyl)phenylthio)-5-fluoromethylphenylamine]
Ki [2]: > 10000 nM | Ki [3, 10]: 0.23 ± 0.04 nM | Ki [3, 11]: 0.42 ± 0.12 nM | logP [1]: 2.44 ± 0.03 | Ki [4]: 664 nM | Ki [5]: 0.23 nM

CN(C)Cc1ccccc1Sc1ccc(Br)cc1N [DAPA, 5-bromo-2-{2[(dimethylamino)methyl]phenylthio}phenylamine]
Ki [3, 10]: 0.38 ± 0.24 nM | Ki [3, 11]: 0.33 ± 0.13 nM | logP [1]: 3.06 ± 0.12

CN(C)Cc1ccccc1Sc1ccc(C#N)cc1N [DASB, 3-amino-4-{2-[(dimethylamino)methyl]phenylthio}benzonitrile]
Ki [2]: > 10000 nM | Ki [3, 10]: 0.87 ± 0.41 nM | Ki [3, 11]: 1.77 ± 0.25 nM | logP [1]: 2.38 ± 0.03 | Ki ([5]; read-out: Ki SERT): 0.87 nM

COc1c(O[11CH3])cccc1[C@H](O)C1CCN(CCc2ccc(F)cc2)CC1 [[^11C]MDL 100907]
VT CER (nonspecific distribution volume) [7]: 18 ± 4 mL/g

CN(C)Cc1ccccc1Sc1ccc(I)cc1CO [[^123I]IDAM, 5-iodo-2-((2-((dimethylamino)methyl)phenyl)thio)benzyl alcohol]
Kd [8]: 0.25 nM

COC(=O)C1C(c2ccc([123I])cc2)CC2CCC1N2C (stereo not drawn) [[^123I]β-CIT, [^123I]2β-carbomethoxy-3β-(4-iodophenyl)tropane]
VT CER (nonspecific distribution volume) [7]: 28 ± 3 mL/g | Plasma free fraction [9]: 40±5%

CN(C)Cc1ccccc1Sc1ccc([125I])cc1N [[^125I]ADAM]
Ki [6]: 0.15 nM

CN(C)Cc1ccccc1Sc1ccc(I)cc1CO [[^125I]IDAM]
Ki [6]: 0.25 nM
